The values below come from US20080260833A1, “Drug delivery vehicle containing vesicles in a hydrogel base” (priority 2007, published 2008).

Holding throughout (type): physicochemical
The nature of data set [1]: Passive diffusion from vesicles and hydrogel matrix (Example 1). The conditions noted are these: PMOXA-b-PDMS-b-PMOXA vesicles in PVA-acrylamide hydrogel; water. On the procedure: Vesicles are made out of the block copolymer poly(2-methyl-2-oxazoline)-b-polydimethylsiloxane-b-poly(2-methyl-2-oxazoline). Molecular weights of the segments are poly(2-methyl-2-oxazoline): 1300, and PDMS segment: 4400. The copolymer is made as described in U.S. Pat. No. 5,807,944 to Hirt et al.
A total of 50 mg of polymer was dissolved in 250 μl of ethanol (99%). The ethanolic solution was slowly added to 5 ml of bi-distilled water containing 0.2 M carboxy-fluorescein. A minimum of 4 h of stirring was allowed. Subsequently, the vesicles were extruded through 0.45 μm and 0.22 μm filters (Millex Durapore-PVDF, Millipore) 6 times. This procedure ensures formation of unilamellar vesicles with diameters dictated by the pore size of the extrusion filters and with a more monodisperse size distribution. Chromatographic separation was achieved on a Sepharose 4B column (1×30 cm) eluted with bi-distilled water. The slightly hazy fraction contains the vesicles.
The hydrogel matrix is based on a PVA-acrylamide macromer and a UV-initiator as taught by U.S. Pat. No. 7,070,809 to Goupil et al., Example 5a. […]
3 g of the vehicle are immersed in 5 ml of water. The water is exchanged every hour for the first 8 hours and every 24 hours thereafter and the fluorescence of the supernatant is measured in order to calculate the amount of carboxy-fluorescein released from the vehicle.

The nature of data set [2]: Release from vesicles crosslinked into the hydrogel (Example 5). Conditions: buffer pH 6.5, 50 C for 24 hours or taken out of solution over night. An excerpt: Vesicles are made from the block copolymer HO-poly(2-methyl-2-oxazoline)-b-polydimethylsiloxane-b-poly(2-methyl-2-oxazoline)-OH modified with isocyanto-ethylmetacrylate at the OH endgroups as taught in U.S. Pat. No. 5,807,944 to Hirt et al.
The hydrogel matrix is made as described in Example 1.
The vesicles are loaded with a hydrophilic lidocaine HCl and cleaned over a Sepharose column as taught above. The resulting vesicles formulation is mixed with the PVA-acrylamide macromer and Irgacure 2959.3 times 3 g of the hydrogel is crosslinked with UV and immersed in 10 ml buffer solution at pH 6.5 each. One sample is exposed to 50 C for 24 hours and left for another 24 hours. One sample is taken out of solution over night and put back into the buffer for 24 hours. Solutions are analyzed with UV for the lidocaine release and compared to the untreated solution.

The nature of data set [3]: Release from temperature sensitive vesicles in hydrogel (Example 4). Conditions: cooled from 40 C to room temperature, 10 ml water, 12 hours.
Protocol: The vesicles are loaded with lidocaine HCl in a buffered solution at pH 6.5 above 40 C and cleaned over a Sepharose column. The resulting vesicles are mixed into 3 g of hydrogel at a solid content of 7% at 40 C. The hydrogel is cooled to room temperature and immersed in 10 ml of water. […] The release is measured with UV at 263 nm over 12 hours.
Data set [4] can be described thus: Release of free lidocaine from the PVA-acrylamide hydrogel (Example 2). The conditions noted are these: in 8 hours; 3 g UV-crosslinked hydrogel in 5 ml buffer; UV at 263 nm. The method, then: (§1) The hydrogel matrix is the same as Example 1.
(§2) The vesicles are loaded with lidocaine HCl, via a phase transfer method from chloroform to water, and cleaned over a Sepharose column. The resulting vesicles formulation is mixed with the PVA-acrylamide macromer and Irgacure 2959.3 g of the hydrogel is crosslinked with UV and immersed in 5 ml buffer solution at pH 4. The 5 ml buffer is exchanged after 8-16 h with 5 ml buffer solution at 0.5 pH units higher and left for another 8-16 h. This is repeated until pH 6.5 is reached. About 80% of free lidocaine is released from the hydrogel in 8 hours. The lidocaine HCl release is measured with UV at 263 nm and compared to a standard curve.

Data set [5] can be described thus: Release from pH responsive vesicles in hydrogel (Example 2). Conditions: poly(2-vinylpyridine-b-ethylene oxide) vesicles in hydrogel; buffer pH 4 to 6.5 in 0.5 pH steps.
From the text: The vesicles are made from the block copolymer poly(2-vinylpyridine-b-ethylene oxide) (NP2VP:29,NPEO: 15) This polymer can be made as described in Foerster et al., Langmuir, 2006, 22, 5843-5847.
as §1, §2

Counter-ions that a name gives are not always drawn.

Take Carboxy-fluorescein: the “passive release of active agent out of the vesicles and hydrogel matrix” value in data set [1] was “slowly diffuse out of the vesicles and then be released from the hydrogel”.

For the molecule `CCN(CC)CC(=O)Nc1c(C)cccc1C` [lidocaine HCl], the “lidocaine release after shape change of the hydrogel” value in data set [2] was “ruptured the vesicles and their content is released”. For the same molecule, the “release of vesicle content at room temperature” value in data set [3] is “release their content slowly”. Further, in data set [4], the “free lidocaine released from the hydrogel” value is “About 80%”. In data set [5], the “lidocaine HCl release out of the vesicles in response to a change in pH” value is reported as “released slowly with increasing pH, with an increased rate after pH 5”.
